# What was measured:
# [1] = tested on: chloroquine-resistant and MDR clone Dd2 of P. falciparum; test: Antimalarial activity assay, SYBR Green I fluorescence-based method; type: cell-based, Plasmodium falciparum
# Protocol: (§1) An antimalarial activity assay was carried out at the Oregon Translational Research and Drug Development Institute (OTRADI). Two strains of P. falciparum were used. The chloroquine-sensitive clone D6, and chloroquine-resistant and MDR clone Dd2 was obtained from the Malaria Research and Reference Reagent Resource Center (MR4) (Manassas, Va.). The parasites were cultured according to the method of Trager and Jensen (Trager and Jensen, Science, 1976, 193:673-675), with minor modifications. The cultures were maintained in human erythrocytes (Lampire Biological Laboratories, Pipersville, Pa.), suspended at 2% hematocrit in RPMI 1640 (Sigma) containing 0.5% Albumax (Invitrogen), […] hypoxanthine (Lancaster), and 50 μg/L gentamicin (Invitrogen), and incubated at 37° C. under a gas mixture of 5% O2, 5% CO2, and 90% N2. In vitro antimalarial activity was determined by a SYBR Green I fluorescence-based method described previously by Smilkstein et al. (Smilkstein et al., Antimicrob. Agents Chemother., 2004, 48:1803-1806). Frozen stock solutions of each test drug (1 mM in DMSO) were thawed, warmed to 37° C., and mixed thoroughly prior to use. Drug solutions were serially diluted with culture medium, and distributed to asynchronous parasite cultures on 96-well plates in quadruplicate in a total volume of 100 μL to achieve 0.2% parasitemia with a 2% hematocrit in a total volume of 100 μL. Automated pipeting and dilution was carried using programmable Precision XS (Bio-Tek, Winooski, Vt.) and Sciclone ALH3000 (Caliper, Hopkinton, Mass.) robotic stations. The plates then were incubated for 72 hours at temperature and gas conditions described above. After incubation, 100 μL of lysis buffer with SYBR Green I was added to each well. The plates were incubated at room temperature for 1 h and then placed in a 96-well fluorescence plate reader (Synergy4, BioTek, Winooski, Vt.) with excitation and emission wavelength at 485 nm and 528 nm, respectively, for measurement of fluorescence. The 50% inhibitory concentration (IC50) was determined by non-linear regression analysis of logistic dose-response curves (GraphPad Prism software).
# [2] = tested on: chloroquine-sensitive clone D6 of P. falciparum; test: as above; type: cell-based, Plasmodium falciparum; details: Plasmodium falciparum
# Protocol: as §1
# Staphylococcus aureus [3] = test: Antibacterial agar diffusion assay (Example 2); type: cell-based
# Protocol: (§2) Antibacterial activity of pactamycin and its analogues was determined by an agar diffusion assay. E. coli, Pseudomonas aeruginosa, Mycobacterium smegmatis, and Staphylococcus aureus were streaked on nutrient agar (Difco) and grown overnight at 37° C. Colonies were transferred to nutrient broth and incubated at 37° C. for 24 hours. Turbidity of the inoculum was measured to a proper density at 600 nm (BioRad, SmartSpec 3000). For plate preparation, inoculum (500 μL) was mixed thoroughly with warm nutrient agar (50 mL) and poured to 25 mL square plates. The agar plates were allowed to solidify and dry for 30 minutes before assay. Sterile blank paper disks (Becton-Dickinson) were impregnated with pactamycin and its analogues (20 μL) at various concentrations and dried at room temperature. The disks were placed onto inoculated agar plates and incubated at 37° C. for 24 hours. In order to produce a contrast background of the inhibition zone, 0.25% MTT developing dye (1 mL) was added over the plates.
# Mycobacterium smegmatis = test: Antibacterial agar diffusion assay (Example 2); type: cell-based
# Protocol: as §2
# Pseudomonas aeruginosa [4] = test: Antibacterial agar diffusion assay (Example 2); type: cell-based
# Protocol: as §2
# E. coli = test: Antibacterial agar diffusion assay (Example 2); type: cell-based, Escherichia coli
# Protocol: as §2
# [5] = tested on: Gram-positive and Gram-negative bacteria (S. aureus, M. smegmatis, P. aeruginosa, E. coli); test: Antibacterial dose-response studies, broth microdilution (Example 2); type: cell-based; details: 0.01 (or 0.1)-100 μM
# Protocol: Dose response assays were performed at a 100-μL volume in 200 μL Eppendorf tubes. The compounds were diluted and added to the bacterial suspension at final concentrations of 0.01 (or 0.1)-100 μM. After incubation at 37° C. for 24 hours, turbidity of cultures was measured at 600 nm (Biorad, SmartSpec 3000). Each assay was done in triplicate.
# To further evaluate and compare the in vitro efficacy of de-6MSA-pactamycin with that of pactamycin, dose-response studies were done using a broth microdilution method with 0.01 (or 0.1)-100 μM concentrations of pactamycin and de-6MSA-pactamycin (FIGS. 16A-16D). […] Both pactamycin and de-6MSA-pactamycin were maximally active between 1 and 10 μM and effective against both Gram-positive and Gram-negative bacteria.
# [6] = tested on: HT-29 human colon carcinoma cells; test: SRB growth inhibition assay in HT-29 cells; type: cell-based; details: HT-29 cells, 24 hours
# Protocol: Growth inhibition of HT-29 cells induced by the test compounds was also evaluated by the SRB assay, which is based on measuring total biomass by staining the cellular proteins with sulforhodamine B (Skehan et al., J. Natl. Cancer Inst., 1990, 82:1107). After treating the HT-29 cells with the compounds for 24 hours, the adherent cells grown in 96-well plates were fixed with 10% trichloroacetic acid and incubated for 1 hour at 4° C. The plates were washed five times with tap water, dried, and stained with SRB solution (0.4% wt/vol in 1% acetic acid) for 30 minutes at room temperature. The plates were again washed and dried before adding 10 mM Tris base to solubilize the bound stain. Optical densities (OD) were read at 564 nm in SpectraMax 250 and cell growth of treated cells was expressed as the percentage of control cells, ODtest/ODcontrol×100%.
# [7] = tested on: human colon cancer HT-29 cells; test: MTT cell viability assay in HT-29 cells; type: cell-based
# Protocol: The MTT assay was carried out as described by Mosmann (J. Immunol. Methods, 1983, 65:55). Briefly, human colon cancer HT-29 cells (ATCC) were seeded in 96-well plates at a density of 1.0×10^4 cells per well. The growth medium consisted of phenol red-free RPMI 1640 (Invitrogen, Carlsbad, Calif.) containing 10% fetal bovine serum (Invitrogen, Carlsbad, Calif.), glutamine (2 mM), penicillin (100 units/mL) and streptomycin (100 μg/mL). After a 24-hour incubation at 37° C. in a humidified atmosphere of 5% CO2, the medium was removed and replaced with fresh RPMI 1640 medium (with or without 10% FBS and no penicillin or streptomycin). Increasing concentrations of pactamycin, pactamycate, de-6MSA pactamycin, or de-6MSA-pactamycate dissolved in DMSO were added to cells at a volume of 0.2 mL/well. DMSO was added to control media not to exceed a final concentration of 1%. Following a 24-hour incubation, the medium was aspirated from each well and replaced with fresh RPMI medium with 10% FBS and MTT (0.5 mg/mL). […] The plate was shaken for 10 minutes before reading the absorbance at 570 nm using a microplate reader (SpectraMax 250, Molecular Devices, Sunnyvale, Calif., USA). The viability of treated cells was expressed as the percentage of control cells. […]
# [8] = Cytotoxicity assay (WST-8) against HCT116 cells; type: cell-based; details: human, HCT116 colorectal carcinoma cells, estimated
# Protocol: HCT116 (colorectal carcinoma) cells were seeded onto a 96-well plate at 10,000 cells per well. Cells were treated with either 5, 50, 500 or 5000 nM TM-025, TM-026, N-acetyl-glucosaminyl-3-aminoacetophenone or 5, 25, 50, 100 nM pactamycin in triplicate for 48 hours. For the narrow range concentration assays, cells were treated with either 0.5, 1, 2 or 4 μM TM-025; 1, 2, 3 or 5 μM TM-026; 0.5, 2, 5 or 7 μM N-acetylglucosaminyl-3-aminoacetophenone or 12.5, 25, 50, 100 nM pactamycin in triplicate for 24 or 48 hours. WST-8 [2-(2-methoxy-4-nitrophenyl)-3-[…], monosodium salt] (Dojindo, Rockville, Md.) was added to each well to give an orange-colored formazan product, which is soluble in tissue culture medium. Absorbance was measured at 450 nm. Percent of viable cells was calculated relative to the “No Treatment” and “Solvent Only” wells.
# [9] = tested on: Gram-positive and Gram-negative bacteria; test: Antibacterial agar diffusion and micro-dilution assays, all tested strains (Example 1); type: cell-based, S. aureus, B. subtilis, P. aeruginosa, E. coli; details: at the concentrations used
# Protocol: (§3) The antibacterial activity of pactamycin and its analogs was determined by agar diffusion and micro-dilution assays. E. coli, P. aeruginosa, B. subtilis or M. smegmatis, and S. aureus were streaked on nutrient agar (Difco or Beckton-Dickinson) and grown overnight at 37° C. Colonies were transferred to nutrient broth and incubated at 37° C. for 24 hours. Turbidity of the inoculum was measured to a proper density at 600 nm (BioRad, SmartSpec 3000). For plate preparation, inoculum (500 μL) was mixed thoroughly with warm nutrient agar (50 mL) and poured to 25 mL square plates. The agar plates were allowed to solidify and dry for 30 min before assay. Sterile blank paper disks (Becton-Dickinson) were impregnated with pactamycin and its analogs (20 μL) at various concentrations and dried at room temperature. The disks were placed onto inoculated agar plates and incubated at 37° C. for 24 hours. In order to produce a contrast background of the inhibition zone, 0.25% MTT developing dye (1 mL) was added over the plates.
# (§4) Micro-dilution assays were performed in 96-well plates. The compounds were serially diluted and added to the bacterial suspension at final concentrations of 1 mM-10 nM, or 0.5 mM-10 nM. After incubation at 37° C. for 24 hours, 0.25% MTT developing dye (50 μL) was added. Each assay was done in triplicate.
# Staphylococcus aureus [10] = test: Antibacterial micro-dilution assay (Example 1); type: cell-based; details: 24 hours, read-out: IC50 against Staphylococcus aureus
# Protocol: as §3, §4
# Escherichia coli = test: Antibacterial micro-dilution assay (Example 1); type: cell-based; details: 24 hours, read-out: IC50 against Escherichia coli
# Protocol: as §3, §4
# Bacillus subtilis = test: Antibacterial micro-dilution assay (Example 1); type: cell-based; details: 24 hours, read-out: IC50 against Bacillus subtilis
# Protocol: as §3, §4
# Pseudomonas aeruginosa [11] = test: Antibacterial micro-dilution assay (Example 1); type: cell-based; details: 24 hours, read-out: IC50 against Pseudomonas aeruginosa
# Protocol: as §3, §4
SMILES,"EC50 ([1]; Plasmodium falciparum, Example 2, FIG. 14, multi-drug resistant Dd2, read-out: EC50 against the Dd2 strain)",times more effective than chloroquine against Dd2 ([1]; relative to chloroquine),"EC50 ([2]; D6, Example 2, FIG. 14, read-out: EC50 against the D6 strain)","antibacterial activity, growth of Staphylococcus aureus (Staphylococcus aureus [3])","antibacterial activity, growth of Mycobacterium smegmatis (Mycobacterium smegmatis)","antibacterial activity, growth of Pseudomonas aeruginosa (Pseudomonas aeruginosa [4])","antibacterial activity, growth of E. coli (E. coli)",biological activity compared with pactamycin in dose-response studies [5],cytotoxicity profile (SRB-based assay) [6],cytotoxicity profile (MTT-based assay) [7],IC50 [8],"IC50 ([1]; Plasmodium falciparum, DD2, 72 h, P. falciparum Dd2, 72 hours, read-out: Antimalarial IC50 (Dd2))","IC90 ([1]; Plasmodium falciparum, DD2, 72 h, P. falciparum Dd2, 72 hours, read-out: Antimalarial IC90 (Dd2))","IC50 ([2]; D6, 72 h, P. falciparum D6, 72 hours, read-out: Antimalarial IC50 (D6))","IC90 ([2]; D6, 72 h, P. falciparum D6, 72 hours, read-out: Antimalarial IC90 (D6))",antibacterial activity in agar diffusion and micro-dilution assays (in words) [9],IC50 (Staphylococcus aureus [10]),IC50 (Escherichia coli),IC50 (Bacillus subtilis),IC50 (Pseudomonas aeruginosa [11])
CC(=O)c1cccc(N[C@H]2[C@H](N)[C@@](NC(=O)N(C)C)([C@H](C)O)[C@@](C)(O)[C@@]2(O)CO)c1 [de-6MSA-pactamycin],9 nM,10 times,7 nM,inhibited the growth,inhibited the growth,inhibited the growth,inhibited the growth,equivalent biological activity with the parent molecule,equivalent cytotoxicity profiles with the respective parent compounds,equivalent cytotoxicity profiles with the respective parent compounds,,,,,,,,,,
CC(=O)c1cccc(N[C@H]2[C@H](N)[C@@](NC(=O)N(C)C)([C@H](C)O)[C@@](C)(O)[C@@]2(O)COC(=O)c2c(C)cccc2O)c1 [pactamycin],,,,inhibited the growth,inhibited the growth,inhibited the growth,inhibited the growth,,,,~100 nM,~21 nM,187 nM,~24 nM,124 nM,strong antibacterial activity,~10 µM,~100 µM,~500 µM,~500 µM
